This note sets out measurements from patent publication US12421253B2 (Mirati Therapeutics, Inc., priority 2020, dated 2025).

One assay has as its target T1, KRas^G12D (Homo sapiens, UniProt P01116, G12D).
T1 construct: […]; biotin (biotinylated); purchased Accelegan Inc
Briefly: KRas binding assay (TR-FRET displacement of Cy5 labelled tracer).

The next assay addresses T2, KRas^G12R (Homo sapiens, UniProt P01116, G12R).
T2 construct: […]; biotin (biotinylated); purchased Accelegan Inc
The assay is described as above.

For the next assay, the target named is T3, KRas^G12V (Homo sapiens, UniProt P01116, G12V).
T3 construct: […]; biotin (biotinylated); purchased Accelegan Inc
T3 sequence (P01116 1-169 isoform P01116-2 G12V): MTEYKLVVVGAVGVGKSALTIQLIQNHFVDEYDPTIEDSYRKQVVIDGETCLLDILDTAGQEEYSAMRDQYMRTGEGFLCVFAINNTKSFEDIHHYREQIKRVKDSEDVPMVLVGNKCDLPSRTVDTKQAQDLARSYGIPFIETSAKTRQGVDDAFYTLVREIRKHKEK
Described as above.

Another assay deals with ASPC1 cells, pERK. Briefly: Inhibition of KRas phosphorylation of ERK (Cisbio HTRF Advanced pERK assay). It is filed as cell-based. To be noted: Homo sapiens, ASPC1, 3 h, AsPC-1 cells, read-out: Inhibition (HTRF IC50 nM) of KRas-mediated Phosphorylation of ERK, AsPC-1. On the procedure: (§1) Inhibition of KRas Phosphorylation of ERK (HTRF) by Exemplary Compounds of Formula (I)
(§2) Cisbio HTRF Advanced pERK Assay Catalog #64AERPEH
(§3) • Day 1: Seed 6,000 cells/well −25 μl/well in 384-well white solid bottom plate; RPM1_10% FBS. […] To harvest cells from flask using 0.05% Trypsin/EDTA solution. Add 10 mL of media to stop trypsinizing. Pipette the cells into a conical bottom 50 mL centrifuge tube and centrifuge 5 min×1000 rpm. • 2. Re-suspend the cell pellet in media, take a cell count, and then adjust the cell density using fresh media. • 3. Seed 6,000 cells into cell culture plate with […]. The • 4. Incubate cell plate overnight in a 37° C., 5% CO2 incubator. Compound Titrations • 1. Use Tecan to complete the compound addition. Compounds start from 10 uM top, 3-fold dilution, and 10 doses. The final DMSO concentration is 0.8%. Dispensed 0.2 uM Trametinib as Min control. • 2. Incubate cell plate for 3 hrs in the incubator. Detection with Cisbio pERK HTRF Kit • 1. Dilute 1 volume of 4× lysis buffer with 3 volumes of deionized water. Then, add 100× the blocking reagent. Keep lysis buffer on the ice. • 2. At the end of the compound treatment, flick-off the media. • 3. Add 35 μL of lysis buffer per well using a Multidrop Combi. Then place on a plate agitator shaking at 300 rpm at 4° C. for 40 mins. • 4. Make up the HTRF antibody buffer. For each assay plate, mix 50 μL of d2-conjugate antibody with 950 μL of detection buffer. Similarly, mix 50 μL of Cryptate antibody with 950 μL of detection buffer. Then mix the two diluted antibodies together. • 5. Dispense 3.4 μL the antibody buffer to wells of an empty assay plate. Seal the plate and centrifuge plate 30 sec×1000 rpm. • 6. At the end of the 4° C. lysis, centrifuge the lysate plates 3 mins×1500 rpm. • 7. Use the Bravo to transfer 13.6 μL of lysate from cell culture plate to assay plate. Then incubate assay plate for 2 hrs at room temperature. • 8. At the end of incubation, read plate on the Envision after centrifuging plate 30 sec×1000 rpm.

The next assay relates to H727 cells, pERK. Described as above. It is filed as cell-based. As to conditions: Homo sapiens, NCI-H727, 3 h, read-out: Inhibition (HTRF IC50 nM) of KRas-mediated Phosphorylation of ERK, H727. As to the method: as §1, §2, §3
(In TR-FRET formats the signal depends on donor and acceptor labels being close together.)

A further assay concerns MKN1 cells, pERK. The assay is described as above. Type of assay: cell-based. As to conditions: Homo sapiens, MKN-1, 3 h, read-out: Inhibition (HTRF IC50 nM) of KRas-mediated Phosphorylation of ERK, MKN1. On the procedure: as §1, §2, §3
Another assay deals with PSN1 cells, pERK. The description is as above. As to conditions: Homo sapiens, PSN1, 3 h, read-out: Inhibition (HTRF IC50 nM) of KRas-mediated Phosphorylation of ERK, PSN1. It is filed as cell-based. As to the method:
as §1, §2, §3

T1 sequence (P01116 1-169 isoform P01116-2 G12D): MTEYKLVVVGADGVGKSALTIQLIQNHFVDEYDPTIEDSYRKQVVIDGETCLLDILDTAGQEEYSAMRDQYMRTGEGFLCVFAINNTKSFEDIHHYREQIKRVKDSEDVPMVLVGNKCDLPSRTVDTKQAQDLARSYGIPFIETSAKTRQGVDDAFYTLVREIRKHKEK
T2 sequence (P01116 1-169 isoform P01116-2 G12R): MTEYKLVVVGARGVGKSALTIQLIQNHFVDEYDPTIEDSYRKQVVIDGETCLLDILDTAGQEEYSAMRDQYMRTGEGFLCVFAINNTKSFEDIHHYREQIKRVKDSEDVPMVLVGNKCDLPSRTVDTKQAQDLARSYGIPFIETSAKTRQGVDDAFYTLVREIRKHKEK
Procedure for KRas^G12D: (§4) The ability of a compound to bind to KRas was measured using a TR-FRET displacement assay. […] After a 60-minute incubation at room temperature, the reaction was measured using a BMG LABTECH CLARIO star Plus via TR-FRET. […] The POC values were fit to a 4-parameter IC50 equation and the IC50 value reported.
Procedure for KRas^G12R: as §4
Procedure for KRas^G12V: as §4

By IC50 is commonly meant the point on the concentration scale where inhibition reaches its midpoint. Regarding `CCc1c(F)ccc2cc(O)cc(N3CCc4c(nc(OC[C@@]56CCCN5C[C@H](F)C6)nc4N4CCCn5nc(C(=O)N(C)C)c(Cl)c5C4)C3)c12` [Example 192, 3-chloro-5-(7-(8-ethyl-7-fluoro-3-hydroxynaphthalen-1-yl)-2-(((2R,7aS)-2-fluorotetrahydro-1H-pyrrolizin-7a(5H)-yl)methoxy)-5,6,7,8-tetrahydropyrido[3,4-d]pyrimidin-4-yl)-N,N-dimethyl-5,6,7,8-tetrahydro-4H-pyrazolo[1,5-a][1,4]diazepine-2-carboxamide], the IC50 at KRas^G12D is at most 2 nM; on KRas^G12R it was 3 nM; on KRas^G12V, at most 2 nM; in the assay on ASPC1 cells, pERK, 24 nM; in the assay with H727 cells, pERK, 29 nM; in the assay on MKN1 cells, pERK, 11 nM. Further, the IC50 in the assay on PSN1 cells, pERK is at least 10000 nM.

For the compound `CCc1c(F)ccc2cc(O)cc(N3CCc4c(nc(OC[C@@]56CCCN5C[C@H](F)C6)nc4N4CCCc5nn(C(=O)NC(C)C)cc5C4)C3)c12` [Example 195, 5-(7-(8-ethyl-7-fluoro-3-hydroxynaphthalen-1-yl)-2-(((2R,7aS)-2-fluorohexahydro-1H-pyrrolizin-7a-yl)methoxy)-5,6,7,8-tetrahydropyrido[3,4-d]pyrimidin-4-yl)-N-isopropyl-5,6,7,8-tetrahydropyrazolo[4,3-c]azepine-2(4H)-carboxamide], the concentration for half-maximal inhibition (IC50) on KRas^G12D is 17 nM; on KRas^G12R, 20 nM; at KRas^G12V, 8 nM; in the assay with ASPC1 cells, pERK it was 1110 nM; with H727 cells, pERK it was 373 nM; in the assay with MKN1 cells, pERK, 1520 nM. In addition, in the assay with PSN1 cells, pERK, the IC50 is at least 10000 nM.

Turning to `CCc1c(F)ccc2cc(O)cc(N3CCc4c(nc(OCC5(CN(C)C)CC5)nc4N4CCCC5(CNS(=O)(=O)N5)C4)C3)c12` (stereo not shown) [Example 202, 7-(2-((1-((dimethylamino)methyl)cyclopropyl)methoxy)-7-(8-ethyl-7-fluoro-3-hydroxynaphthalen-1-yl)-5,6,7,8-tetrahydropyrido[3,4-d]pyrimidin-4-yl)-2-thia-1,3,7-triazaspiro[4.5]decane 2,2-dioxide], the IC50 on KRas^G12D is at most 2 nM; at KRas^G12R it was 7 nM; at KRas^G12V it was at most 2 nM; with ASPC1 cells, pERK, 543 nM; with H727 cells, pERK, 1350 nM; with MKN1 cells, pERK it was 101 nM. In addition, in the assay with PSN1 cells, pERK, the 50% inhibitory concentration (IC50) stood at 3900 nM.

Take `Oc1cc(N2CCc3c(nc(OC[C@@]45CCCN4C[C@H](F)C5)nc3N3CC4CC(O)C(C4)C3)C2)c2c(Br)c(F)ccc2c1` (stereo partly drawn) [Example 215, 3-(7-(8-bromo-7-fluoro-3-hydroxynaphthalen-1-yl)-2-(((2R,7aS)-2-fluorohexahydro-1H-pyrrolizin-7a-yl)methoxy)-5,6,7,8-tetrahydropyrido[3,4-d]pyrimidin-4-yl)-3-azabicyclo[3.2.1]octan-6-ol]: the IC50 at KRas^G12D was determined as 10 nM; at KRas^G12R, 3 nM; on KRas^G12V it was 3 nM; in the assay on ASPC1 cells, pERK, 1300 nM; in the assay on H727 cells, pERK, 957 nM; with MKN1 cells, pERK it was 203 nM. Also, the IC50 in the assay with PSN1 cells, pERK came out at 7580 nM.

For the compound `OCC1COCCN(c2nc(OC[C@@]34CCCN3C[C@H](F)C4)nc3c2CCN(c2cc(O)cc4ccc(F)c(Br)c24)C3)C1` (stereo partly drawn) [Example 220, 5-bromo-6-fluoro-4-(2-(((2R,7aS)-2-fluorohexahydro-1H-pyrrolizin-7a-yl)methoxy)-4-(6-(hydroxymethyl)-1,4-oxazepan-4-yl)-5,6-dihydropyrido[3,4-d]pyrimidin-7(8H)-yl)naphthalen-2-ol], the IC50 on KRas^G12D was at most 2 nM; at KRas^G12R, at most 2 nM; at KRas^G12V it was at most 2 nM; in the assay with ASPC1 cells, pERK, 668 nM; in the assay with H727 cells, pERK, 616 nM; with MKN1 cells, pERK it was 29 nM. For the same compound, the IC50 in the assay on PSN1 cells, pERK is 4100 nM.

As to `Oc1cc(N2CCc3c(nc(OC[C@@]45CCCN4C[C@H](F)C5)nc3N3CCOCC(n4cccn4)C3)C2)c2c(Br)c(F)ccc2c1` (stereo partly drawn) [Example 221, 4-(4-(6-(1H-pyrazol-1-yl)-1,4-oxazepan-4-yl)-2-(((2R,7aS)-2-fluorotetrahydro-1H-pyrrolizin-7a(5H)-yl)methoxy)-5,8-dihydropyrido[3,4-d]pyrimidin-7(6H)-yl)-5-bromo-6-fluoronaphthalen-2-ol], the IC50 worked out at 4 nM on KRas^G12D; 5 nM at KRas^G12R; 3 nM at KRas^G12V; 1360 nM in the assay on ASPC1 cells, pERK; 1460 nM in the assay with H727 cells, pERK; 145 nM with MKN1 cells, pERK. In the assay on PSN1 cells, pERK, the IC50 is at least 10000 nM.

With `Oc1cc(N2CCc3c(nc(OC[C@@]45CCCN4C[C@H](F)C5)nc3N3CCCC4(CC(O)C4)C3)C2)c2c(Br)c(F)ccc2c1` (stereo partly drawn) [Example 224, 6-(7-(8-bromo-7-fluoro-3-hydroxynaphthalen-1-yl)-2-(((2R,7aS)-2-fluorohexahydro-1H-pyrrolizin-7a-yl)methoxy)-5,6,7,8-tetrahydropyrido[3,4-d]pyrimidin-4-yl)-6-azaspiro[3.5]nonan-2-ol], the IC50 was at most 2 nM on KRas^G12D; at most 2 nM at KRas^G12R; at most 2 nM at KRas^G12V; 976 nM in the assay with ASPC1 cells, pERK; 651 nM in the assay on H727 cells, pERK; 62 nM in the assay with MKN1 cells, pERK. Also, the IC50 in the assay with PSN1 cells, pERK is at least 10000 nM.

In the case of `Oc1cc(N2CCc3c(nc(OC[C@@]45CCCN4C[C@H](F)C5)nc3N3CC4CC(O)C(C4)C3)C2)c2c(Cl)c(F)ccc2c1` (stereo partly drawn) [Example 227, 3-(7-(8-chloro-7-fluoro-3-hydroxynaphthalen-1-yl)-2-(((2R,7aS)-2-fluorohexahydro-1H-pyrrolizin-7a-yl)methoxy)-5,6,7,8-tetrahydropyrido[3,4-d]pyrimidin-4-yl)-3-azabicyclo[3.2.1]octan-6-ol], the IC50 at KRas^G12D was 20 nM; on KRas^G12R, 6 nM; on KRas^G12V, 4 nM; in the assay on ASPC1 cells, pERK, 4050 nM; in the assay on H727 cells, pERK, 1300 nM; in the assay with MKN1 cells, pERK, 524 nM. Also, the IC50 in the assay with PSN1 cells, pERK was 7050 nM.

On to `Oc1cc(N2CCc3c(nc(OC[C@@]45CCCN4C[C@H](F)C5)nc3N3CCOCC(n4cccn4)C3)C2)c2c(Cl)c(F)ccc2c1` (stereo partly drawn) [Example 230, 4-(4-(6-(1H-pyrazol-1-yl)-1,4-oxazepan-4-yl)-2-(((2R,7aS)-2-fluorohexahydro-1H-pyrrolizin-7a-yl)methoxy)-5,6-dihydropyrido[3,4-d]pyrimidin-7(8H)-yl)-5-chloro-6-fluoronaphthalen-2-ol], for which the IC50 at KRas^G12D was 5 nM; on KRas^G12R, 5 nM; at KRas^G12V, 3 nM; with ASPC1 cells, pERK it was 1090 nM; with H727 cells, pERK, 1750 nM; in the assay on MKN1 cells, pERK, 112 nM. For the same compound, in the assay on PSN1 cells, pERK, the concentration for half-maximal inhibition (IC50) is at least 10000 nM.

`O=C1NCC12CCCN(c1nc(OC[C@@]34CCCN3C[C@H](F)C4)nc3c1CCN(c1cc(O)cc4ccc(F)c(Cl)c14)C3)C2` (stereo partly drawn) [Example 231, 6-(7-(8-chloro-7-fluoro-3-hydroxynaphthalen-1-yl)-2-(((2R,7aS)-2-fluorotetrahydro-1H-pyrrolizin-7a(5H)-yl)methoxy)-5,6,7,8-tetrahydropyrido[3,4-d]pyrimidin-4-yl)-2,6-diazaspiro[3.5]nonan-1-one]: the IC50 on KRas^G12D turned out to be 12 nM; at KRas^G12R, 26 nM; on KRas^G12V, 15 nM; in the assay on ASPC1 cells, pERK it was 2360 nM; in the assay on H727 cells, pERK, 4380 nM; in the assay on MKN1 cells, pERK it was 929 nM. Moreover, the IC50 in the assay on PSN1 cells, pERK is at least 10000 nM.
